# Assay results reported in patent US10040790B2, “Bicyclic heterocycles as FGFR inhibitors” (Incyte Corporation, priority 2013, dated 2018).
# Tests used:
# Format in all cases: biochemical
# [1] = molecular target: FGFR2 (Homo sapiens (Human), UniProt P21802); test: FGFR Enzymatic Assay (FRET peptide phosphorylation), FGFR2; settings: ATP 100 μM, enzyme 0.01 nM
# Protocol: (§1) The inhibitor potency of the exemplified compounds was measured in an enzyme assay that measures peptide phosphorylation using FRET measurements to detect product formation. Inhibitors were serially diluted in DMSO and a volume of 0.5 μL was transferred to the wells of a 384-well plate. For FGFR3, a 10 μL volume of FGFR3 enzyme (Millipore) diluted in assay buffer (50 mM HEPES, 10 mM MgCl2, 1 mM EGTA, 0.01% Tween-20, 5 mM DTT, pH 7.5) was added to the plate and pre-incubated for 5-10 minutes. Appropriate controls (enzyme blank and enzyme with no inhibitor) were included on the plate. The assay was initiated by the addition of a 10 μL solution containing biotinylated EQEDEPEGDYFEWLE peptide substrate (SEQ ID NO: 1) and ATP (final concentrations of 500 nM and 140 μM respectively) in assay buffer to the wells. The plate was incubated at 25° C. for 1 hr. The reactions were ended with the addition of 10 μL/well of quench solution (50 mM Tris, 150 mM NaCl, 0.5 mg/mL BSA, pH 7.8; 30 mM EDTA with Perkin Elmer Lance Reagents at 3.75 nM Eu-antibody PY20 and 180 nM APC-Streptavidin). The plate was allowed to equilibrate for ˜1 hr before scanning the wells on a PheraStar plate reader (BMG Labtech).
# (§2) FGFR1 and FGFR2 were measured under equivalent conditions with the following changes in enzyme and ATP concentrations: FGFR1, 0.02 nM and 210 μM, respectively and FGFR2, 0.01 nM and 100 μM, respectively. The enzymes were purchased from Millipore or Invitrogen.
# (§3) GraphPad prism3 was used to analyze the data. The IC50 values were derived by fitting the data to the equation for a sigmoidal dose-response with a variable slope. Y=Bottom+(Top−Bottom)/(1+10^((Log IC50−X)*HillSlope)) where X is the logarithm of concentration and Y is the response.
# [2] = molecular target: FGFR1 (Homo sapiens (Human), UniProt P11362); test: FGFR Enzymatic Assay (FRET peptide phosphorylation), FGFR1; settings: ATP 210 μM, enzyme 0.02 nM
# Protocol: as §1, §2, §3
# [3] = molecular target: FGFR3 (Homo sapiens (Human), UniProt P22607); test: FGFR Enzymatic Assay (FRET peptide phosphorylation), FGFR3; settings: ATP 140 μM
# Protocol: as §1, §3
# Sequence of FGFR3 (P22607 23-806): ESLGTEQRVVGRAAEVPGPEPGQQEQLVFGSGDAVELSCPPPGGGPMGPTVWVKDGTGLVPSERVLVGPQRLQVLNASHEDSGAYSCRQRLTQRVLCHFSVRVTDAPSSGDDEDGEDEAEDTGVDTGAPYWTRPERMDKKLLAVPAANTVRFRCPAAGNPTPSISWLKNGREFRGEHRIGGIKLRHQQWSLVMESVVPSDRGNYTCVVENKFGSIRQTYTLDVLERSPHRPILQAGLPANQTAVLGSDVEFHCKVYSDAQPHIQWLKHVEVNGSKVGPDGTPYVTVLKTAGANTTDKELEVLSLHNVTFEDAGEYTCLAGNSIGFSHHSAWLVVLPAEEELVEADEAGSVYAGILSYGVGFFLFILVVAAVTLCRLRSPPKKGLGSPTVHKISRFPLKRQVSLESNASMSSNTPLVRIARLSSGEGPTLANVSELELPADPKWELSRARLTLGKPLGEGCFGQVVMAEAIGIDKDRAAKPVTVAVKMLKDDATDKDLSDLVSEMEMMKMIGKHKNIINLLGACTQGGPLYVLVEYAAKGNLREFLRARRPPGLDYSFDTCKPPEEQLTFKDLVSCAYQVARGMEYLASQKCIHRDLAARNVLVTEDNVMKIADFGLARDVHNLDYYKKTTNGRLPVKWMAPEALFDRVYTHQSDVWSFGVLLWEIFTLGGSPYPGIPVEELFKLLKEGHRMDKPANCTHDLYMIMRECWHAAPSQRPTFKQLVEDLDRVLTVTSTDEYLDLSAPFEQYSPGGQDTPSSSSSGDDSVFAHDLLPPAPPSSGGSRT
# Sequence of FGFR2 (P21802 22-821): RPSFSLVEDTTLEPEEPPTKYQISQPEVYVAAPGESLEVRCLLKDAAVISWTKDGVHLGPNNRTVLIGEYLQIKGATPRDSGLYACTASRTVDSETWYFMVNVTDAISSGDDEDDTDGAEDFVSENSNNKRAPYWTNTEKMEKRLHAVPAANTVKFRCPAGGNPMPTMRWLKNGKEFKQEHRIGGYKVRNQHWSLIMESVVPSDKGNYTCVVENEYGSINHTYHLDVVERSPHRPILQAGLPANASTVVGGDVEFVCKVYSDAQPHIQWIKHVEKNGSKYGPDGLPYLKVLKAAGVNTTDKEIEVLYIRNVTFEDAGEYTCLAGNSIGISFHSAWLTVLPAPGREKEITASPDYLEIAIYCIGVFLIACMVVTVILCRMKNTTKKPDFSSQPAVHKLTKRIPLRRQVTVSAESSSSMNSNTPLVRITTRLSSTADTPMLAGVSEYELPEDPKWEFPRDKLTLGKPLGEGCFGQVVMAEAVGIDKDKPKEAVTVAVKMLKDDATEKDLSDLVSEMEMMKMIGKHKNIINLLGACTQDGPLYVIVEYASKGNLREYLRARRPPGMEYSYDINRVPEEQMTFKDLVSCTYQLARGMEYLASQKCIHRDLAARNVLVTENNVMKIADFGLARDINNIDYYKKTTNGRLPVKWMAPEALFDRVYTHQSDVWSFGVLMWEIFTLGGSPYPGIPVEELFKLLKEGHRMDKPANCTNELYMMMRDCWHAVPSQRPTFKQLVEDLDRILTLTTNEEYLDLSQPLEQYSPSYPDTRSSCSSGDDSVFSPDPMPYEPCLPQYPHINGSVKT
# Sequence of FGFR1 (P11362 22-822): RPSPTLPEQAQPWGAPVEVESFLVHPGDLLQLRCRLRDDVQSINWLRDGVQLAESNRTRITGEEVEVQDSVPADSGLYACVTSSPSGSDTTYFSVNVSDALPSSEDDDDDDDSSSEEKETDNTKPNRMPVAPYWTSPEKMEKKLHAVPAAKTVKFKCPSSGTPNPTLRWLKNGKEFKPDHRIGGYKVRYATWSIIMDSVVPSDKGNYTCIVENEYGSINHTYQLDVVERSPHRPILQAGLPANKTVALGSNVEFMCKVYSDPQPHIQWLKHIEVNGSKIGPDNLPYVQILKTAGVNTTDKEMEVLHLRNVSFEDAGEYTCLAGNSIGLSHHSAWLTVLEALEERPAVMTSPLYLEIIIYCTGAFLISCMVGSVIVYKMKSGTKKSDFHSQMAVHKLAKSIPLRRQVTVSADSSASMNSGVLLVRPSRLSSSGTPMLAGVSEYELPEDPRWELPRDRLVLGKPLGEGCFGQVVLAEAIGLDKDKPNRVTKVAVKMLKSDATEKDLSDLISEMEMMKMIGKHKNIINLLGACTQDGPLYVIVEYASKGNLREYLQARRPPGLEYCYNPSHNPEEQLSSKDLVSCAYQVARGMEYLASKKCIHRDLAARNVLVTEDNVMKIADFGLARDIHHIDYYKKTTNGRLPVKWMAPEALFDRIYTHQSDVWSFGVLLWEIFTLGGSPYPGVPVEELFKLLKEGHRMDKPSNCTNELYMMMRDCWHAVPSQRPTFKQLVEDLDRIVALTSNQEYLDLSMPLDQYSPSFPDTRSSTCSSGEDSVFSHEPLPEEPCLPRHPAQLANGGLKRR
Structure (SMILES),IC50 [1] [nM],IC50 [2] [nM],IC50 [3] [nM]
"COc1cc(OC)c(F)c(N2Cc3cnc(N)cc3C(C)(C)C2=O)c1F [Example 22, 6-amino-2-(2,6-difluoro-3,5-dimethoxyphenyl)-4,4-dimethyl-1,2-dihydro-2,7-naphthyridin-3(4H)-one]",< 100,< 100,< 100
"COc1cc(OC)c(F)c(N2Cc3cnc(N)c(CCc4ccccc4)c3N(C)C2=O)c1F [Example 19, 7-amino-3-(2,6-difluoro-3,5-dimethoxyphenyl)-1-methyl-8-phenylethyl-3,4-dihydropyrido-[4,3-d]pyrimidin-2(1H)-one]",< 100,< 100,< 100
"COc1cc(OC)c(F)c(N2Cc3cnc(N)c(-c4cnn(C)c4)c3N(C)C2=O)c1F [Example 8, 7-amino-3-(2,6-difluoro-3,5-dimethoxyphenyl)-1-methyl-8-(1-methyl-1H-pyrazol-4-yl)-3,4-dihydropyrido[4,3-d]pyrimidin-2(1H)-one]",< 100,< 100,< 100
"COc1cc(OC)c(F)c(N2Cc3cnc(N)c(-c4cnn(C5CCNCC5)c4)c3N(C)C2=O)c1F [Example 11, 7-amino-3-(2,6-difluoro-3,5-dimethoxyphenyl)-1-methyl-8-(1-piperidin-4-yl-1H-pyrazol-4-yl)-3,4-dihydropyrido[4,3-d]pyrimidin-2(1H)-one]",< 100,< 100,< 100
"COCCOc1c(N)ncc2c1N(C)C(=O)N(c1c(F)c(OC)cc(OC)c1F)C2 [Example 5, 7-amino-3-(2,6-difluoro-3,5-dimethoxyphenyl)-8-(2-methoxyethoxy)-1-methyl-3,4-dihydro-pyrido[4,3-d]pyrimidin-2(1H)-one]",< 100,< 100,< 100
"COc1cc(OC)c(F)c(N2Cc3cnc(N)c(/C=C/c4ccccc4)c3N(C)C2=O)c1F [Example 18, 7-amino-3-(2,6-difluoro-3,5-dimethoxyphenyl)-1-methyl-8-[(E)-2-phenylvinyl]-3,4-dihydropyrido[4,3-d]pyrimidin-2(1H)-one]",< 100,< 100,< 100
"CCOc1c(N)ncc2c1N(C)C(=O)N(c1c(F)c(OC)cc(OC)c1F)C2 [Example 4, 7-amino-3-(2,6-difluoro-3,5-dimethoxyphenyl)-8-ethoxy-1-methyl-3,4-dihydropyrido[4,3-d]pyrimidin-2(1H)-one]",< 100,< 100,< 100
"COc1cc(OC)c(F)c(N2Cc3cnc(N)c(-c4ccccc4)c3N(C)C2=O)c1F [Example 14, 7-amino-3-(2,6-difluoro-3,5-dimethoxyphenyl)-1-methyl-8-phenyl-3,4-dihydropyrido[4,3-d]pyrimidin-2(1H)-one]",< 100,< 100,< 100
"COc1cc(OC)c(F)c(N2Cc3cnc(N)c(C)c3N(C)C2=O)c1F [Example 1, 7-amino-3-(2,6-difluoro-3,5-dimethoxyphenyl)-1,8-dimethyl-3,4-dihydropyrido[4,3-d]pyrimidin-2(1H)-one]",< 100,< 100,< 100
"CCc1c(N)ncc2c1N(C)C(=O)N(c1c(F)c(OC)cc(OC)c1F)C2 [Example 2, 7-amino-3-(2,6-difluoro-3,5-dimethoxyphenyl)-8-ethyl-1-methyl-3,4-dihydropyrido[4,3-d]pyrimidin-2(1H)-one]",< 100,< 100,< 100

# Next, values leading:
IC50 [1] [nM],IC50 [2] [nM],IC50 [3] [nM],Structure (SMILES)
< 100,< 100,< 100,"COc1cc(OC)c(F)c(N2Cc3cnc(N[C@H]4CC[C@H](O)CC4)cc3C3(CC3)C2=O)c1F [Example 40, 2′-(2,6-difluoro-3,5-dimethoxyphenyl)-6′-(trans-4-hydroxycyclohexylamino)-1′H-spiro[cyclopropane-1,4′-[2,7]naphthyridin]-3′(2′H)-one]"
< 100,< 100,< 100,"COc1cc(OC)c(F)c(N2Cc3cnc(N)c(C)c3N(c3ccccc3F)C2=O)c1F [Example 45, 7-amino-3-(2,6-difluoro-3,5-dimethoxyphenyl)-1-(2-fluorophenyl)-8-methyl-3,4-dihydropyrido[4,3-d]pyrimidin-2(1H)-one]"
< 100,< 100,< 100,"COc1cc(OC)c(F)c(N2Cc3cnc(NC4CCC4)cc3C3(CC3)C2=O)c1F [Example 42, 6′-(cyclobutylamino)-2′-(2,6-difluoro-3,5-dimethoxyphenyl)-1′H-spiro[cyclopropane-1,4′-[2,7]naphthyridin]-3′(2′H)-one]"
< 100,< 100,< 100,"COc1cc(OC)c(F)c(N2Cc3cnc(Nc4cccc(F)c4)cc3C3(CC3)C2=O)c1F [Example 33, 2′-(2,6-difluoro-3,5-dimethoxyphenyl)-6′-(3-fluorophenylamino)-1′H-spiro[cyclopropane-1,4′-[2,7]naphthyridin]-3′(2′H)-one]"
< 100,< 100,< 100,"COc1cc(OC)c(F)c(N2Cc3cnc(N)c(C#N)c3N(Cc3cc(F)cc(F)c3)C2=O)c1F [Example 52, 7-amino-1-(3,5-difluorobenzyl)-3-(2,6-difluoro-3,5-dimethoxyphenyl)-2-oxo-1,2,3,4-tetrahydropyrido[4,3-d]pyrimidine-8-carbonitrile]"
< 100,< 100,< 100,"COc1cc(OC)c(F)c(N2Cc3cnc(NCc4cnn(C)c4)cc3C3(CC3)C2=O)c1F [Example 37, 2′-(2,6-difluoro-3,5-dimethoxyphenyl)-6′-((1-methyl-1H-pyrazol-4-yl)methylamino)-1′H-spiro[cyclopropane-1,4′-[2,7]naphthyridin]-3′(2′H)-one]"
< 100,< 100,< 100,"COc1cc(OC)c(F)c(N2Cc3cnc(N)c(C)c3N(Cc3cnn(C)c3)C2=O)c1F [Example 47, 7-amino-3-(2,6-difluoro-3,5-dimethoxyphenyl)-8-methyl-1-[(1-methyl-1H-pyrazol-4-yl)methyl]-3,4-dihydropyrido[4,3-d]pyrimidin-2(1H)-one]"
< 100,< 100,< 100,"COc1cc(OC)c(F)c(N2Cc3cnc(Nc4cnn(C)c4)cc3C3(CC3)C2=O)c1F [Example 36, 2′-(2,6-difluoro-3,5-dimethoxyphenyl)-6′-(1-methyl-1H-pyrazol-4-ylamino)-1′H-spiro[cyclopropane-1,4′-[2,7]naphthyridin]-3′(2′H)-one]"
< 100,< 100,< 100,"COc1cc(OC)c(F)c(N2Cc3cnc(Nc4cccnc4)cc3C3(CC3)C2=O)c1F [Example 32, 2′-(2,6-difluoro-3,5-dimethoxyphenyl)-6′-(pyridin-3-ylamino)-1′H-spiro[cyclopropane-1,4′-[2,7]naphthyridin]-3′(2′H)-one]"
< 100,< 100,< 100,"COc1cc(OC)c(F)c(N2Cc3cnc(NCc4ccccn4)cc3C3(CC3)C2=O)c1F [Example 28, 2′-(2,6-difluoro-3,5-dimethoxyphenyl)-6′-(pyridin-2-ylmethylamino)-1′H-spiro[cyclopropane-1,4′-[2,7]naphthyridin]-3′(2′H)-one]"
< 100,< 100,< 100,"COc1cc(OC)c(F)c(N2Cc3cnc(N)cc3C3(CC3)C2=O)c1F [Example 24, 6′-amino-2′-(2,6-difluoro-3,5-dimethoxyphenyl)-1′H-spiro[cyclopropane-1,4′-[2,7]naphthyridin]-3′(2′H)-one]"
< 100,< 100,< 100,"COc1cc(OC)c(F)c(N2Cc3cnc(NC4CCCCC4)cc3C3(CC3)C2=O)c1F [Example 39, 6′-(cyclohexylamino)-2′-(2,6-difluoro-3,5-dimethoxyphenyl)-1′H-spiro[cyclopropane-1,4′-[2,7]naphthyridin]-3′(2′H)-one]"
< 100,< 100,< 100,"COc1cc(OC)c(F)c(N2Cc3cnc(N[C@H]4CCOC4)cc3C3(CC3)C2=O)c1F [Example 29, (S)-2′-(2,6-difluoro-3,5-dimethoxyphenyl)-6′-(tetrahydrofuran-3-ylamino)-1′H-spiro[cyclopropane-1,4′-[2,7]naphthyridin]-3′(2′H)-one]"
< 100,< 100,< 100,"COC(=O)Nc1ncc2c(c1C)N(C)C(=O)N(c1c(F)c(OC)cc(OC)c1F)C2 [Example 48, methyl [3-(2,6-difluoro-3,5-dimethoxyphenyl)-1,8-dimethyl-2-oxo-1,2,3,4-tetrahydropyrido [4,3-d]pyrimidin-7-yl]carbamate]"
